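48-hour exposure; five concentrations; linearly interpolated endpoints. Here, GI50 denotes the concentration required for 50% inhibition of growth.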 Active and inactive are the calls of the source. Rule as the data show it: active = GI50 up to about 1.1 µM and inactive = higher.
Columns and labels:
Experiment in all cases: NCI tumour cell line growth inhibition, 48 h
[1] = test system: U-251
[2] = test system: HT-29
[3] = test system: SK-MEL-5
[4] = test system: SNB-78
[5] = test system: CCRF-CEM
[6] = test system: HL-60
[7] = test system: ACHN
[8] = test system: HOP-92
[9] = test system: A549
[10] = test system: UO-31
[11] = test system: DLD-1
[12] = test system: SR
[13] = test system: M19-MEL
[14] = test system: EKVX
[15] = test system: SN12C
[16] = test system: SK-OV-3
[17] = test system: KM-20L2
[18] = test system: SK-MEL-2
[19] = test system: SK-MEL-28
[20] = test system: SF-295
[21] = test system: NCI-H23
[22] = test system: OVCAR-4
[23] = test system: K562
[24] = test system: NCI-H522
[25] = test system: CAKI-1
[26] = test system: OVCAR-5
[27] = test system: OVCAR-3
[28] = test system: OVCAR-8
[29] = test system: 786-0
[30] = test system: HOP-18
[31] = test system: SF-268
[32] = test system: MOLT-4
[33] = test system: RXF 393
[34] = test system: DMS-273
[35] = test system: HCT-116
[36] = test system: DMS-114
[37] = test system: IGROV-1
[38] = test system: UACC-257
[39] = test system: NCI-H460
[40] = test system: COLO 205
[41] = test system: SW-620
[42] = test system: SNB-19
[43] = test system: HOP-62
[44] = test system: A498
[45] = test system: Malme-3M
[46] = test system: NCI-H226
[47] = test system: SF-539
[48] = test system: KM12
[49] = test system: XF498
[50] = test system: UACC-62
[51] = test system: M14
[52] = test system: RPMI-8226
[53] = test system: HCC 2998
[54] = test system: TK-10
[55] = test system: LOX IMVI
[56] = test system: SNB-75
[57] = test system: HCT-15
[58] = test system: LXFL 529

COc1ccc2c(c1)[n+]([O-])c(-c1cccc(Cl)c1)c(N)[n+]2[O-]
GI50 [1]: 37.3 µM (inactive)
GI50 [2]: 41.5 µM (inactive)
GI50 [3]: 19.2 µM (inactive)
GI50 [4]: 79.8 µM (inactive)
GI50 [5]: 22.9 µM (inactive)
GI50 [6]: 29 µM (inactive)
GI50 [7]: 57.3 µM (inactive)
GI50 [8]: > 100 µM (inactive)
GI50 [9]: 32.7 µM (inactive)
GI50 [10]: 89.3 µM (inactive)
GI50 [11]: 38.2 µM (inactive)
GI50 [12]: 43.6 µM (inactive)
GI50 [13]: 30.3 µM (inactive)
GI50 [14]: > 100 µM (inactive)
GI50 [15]: 48.4 µM (inactive)
GI50 [16]: 95.9 µM (inactive)
GI50 [17]: 37.8 µM (inactive)
GI50 [18]: 18.7 µM (inactive)
GI50 [19]: 23.6 µM (inactive)
GI50 [20]: 97.1 µM (inactive)
GI50 [21]: 23.9 µM (inactive)
GI50 [22]: 34.6 µM (inactive)
GI50 [23]: 45.1 µM (inactive)
GI50 [24]: 16.5 µM (inactive)
GI50 [25]: 62.4 µM (inactive)
GI50 [26]: 33.1 µM (inactive)
GI50 [27]: 36.2 µM (inactive)
GI50 [28]: 40.3 µM (inactive)
GI50 [29]: 95.1 µM (inactive)
GI50 [30]: > 100 µM (inactive)
GI50 [31]: 33.8 µM (inactive)
GI50 [32]: 46 µM (inactive)
GI50 [33]: 53.8 µM (inactive)
GI50 [34]: 33.6 µM (inactive)
GI50 [35]: 38.5 µM (inactive)
GI50 [36]: 23.1 µM (inactive)
GI50 [37]: 46.8 µM (inactive)
GI50 [38]: 21.1 µM (inactive)
GI50 [39]: 27.4 µM (inactive)
GI50 [40]: 16.6 µM (inactive)
GI50 [41]: 39.7 µM (inactive)
GI50 [42]: > 100 µM (inactive)
GI50 [43]: > 100 µM (inactive)
GI50 [44]: > 100 µM (inactive)
GI50 [45]: 37.2 µM (inactive)
GI50 [46]: > 100 µM (inactive)
GI50 [47]: 31.3 µM (inactive)
GI50 [48]: 48.6 µM (inactive)
GI50 [49]: > 100 µM (inactive)

[N-]=[N+]=NC(CI)c1cn([C@H]2C[C@H](O)[C@@H](CO)O2)c(=O)[nH]c1=O (stereo partly drawn)
GI50 [1]: > 100 µM (inactive)
GI50 [2]: > 100 µM (inactive)
GI50 [50]: > 100 µM (inactive)
GI50 [51]: > 100 µM (inactive)
GI50 [3]: > 100 µM (inactive)
GI50 [4]: > 100 µM (inactive)
GI50 [5]: > 100 µM (inactive)
GI50 [6]: 54.1 µM (inactive)
GI50 [7]: > 100 µM (inactive)
GI50 [8]: > 100 µM (inactive)
GI50 [9]: 41.5 µM (inactive)
GI50 [10]: > 100 µM (inactive)
GI50 [11]: > 100 µM (inactive)
GI50 [12]: > 100 µM (inactive)
GI50 [13]: > 100 µM (inactive)
GI50 [14]: > 100 µM (inactive)
GI50 [15]: > 100 µM (inactive)
GI50 [16]: > 100 µM (inactive)
GI50 [17]: > 100 µM (inactive)
GI50 [18]: > 100 µM (inactive)
GI50 [19]: > 100 µM (inactive)
GI50 [20]: > 100 µM (inactive)
GI50 [21]: 90.4 µM (inactive)
GI50 [23]: 83.9 µM (inactive)
GI50 [24]: > 100 µM (inactive)
GI50 [25]: > 100 µM (inactive)
GI50 [52]: 51.5 µM (inactive)
GI50 [26]: > 100 µM (inactive)
GI50 [53]: 85.1 µM (inactive)
GI50 [27]: > 100 µM (inactive)
GI50 [28]: > 100 µM (inactive)
GI50 [29]: 63.2 µM (inactive)
GI50 [54]: > 100 µM (inactive)
GI50 [30]: 2.92 µM (inactive)
GI50 [32]: > 100 µM (inactive)
GI50 [33]: > 100 µM (inactive)
GI50 [34]: > 100 µM (inactive)
GI50 [35]: > 100 µM (inactive)
GI50 [36]: 56 µM (inactive)
GI50 [37]: > 100 µM (inactive)
GI50 [39]: 29.8 µM (inactive)
GI50 [40]: > 100 µM (inactive)
GI50 [41]: > 100 µM (inactive)
GI50 [55]: > 100 µM (inactive)
GI50 [56]: > 100 µM (inactive)
GI50 [42]: > 100 µM (inactive)
GI50 [43]: > 100 µM (inactive)
GI50 [45]: > 100 µM (inactive)
GI50 [46]: > 100 µM (inactive)
GI50 [47]: > 100 µM (inactive)
GI50 [57]: > 100 µM
GI50 [48]: > 100 µM (inactive)
GI50 [58]: > 100 µM (inactive)
GI50 [49]: 80.2 µM (inactive)

From ChEMBL document CHEMBL1201862, “PubChem BioAssay data set” (2004)
